{
  "source": "patent US12636260B2",
  "about": "“Application of α-asarone in preparation of medicine for preventing or treating hemorrhagic stroke” (CHENGDU XINRUI TAIKANG TECHNOLOGY CO., LTD., priority 2021, dated 2026)",
  "key": {"[1]": {"system": "mouse bone marrow cells", "assay": "Mouse bone marrow micronucleus test by flow cytometry", "type": "in vivo", "details": "mice; for MNPCE / PCE / fMNPCE (‰): 4 days", "experimental": "Experimental grouping and administration: The animals were randomly divided into five groups with 10 […] in each group: blank control group (blank group, administrated blank emulsion with the same volume as the high-dose group of α-asarone), cyclophosphamide group (CTX group, 40 mg/kg), low dose of α-asarone emulsion injection group (prepared by preparation embodiment 7, 100 mg/kg/day, ASA-L group), medium dose of α-asarone emulsion injection group (prepared by preparation embodiment 7, 150 mg/kg/day, ASA-M group), and high dose of α-asarone emulsion injection group (prepared from preparation embodiment 7, 200 mg/kg/day, ASA-H group).\nAll drugs were administrated through the tail vein for continuous 4 days except for the single injection of the positive control drug cyclophosphamide (CTX) 24 hours before sampling. After 24 hours of the last administration, the mice were sacrificed to separate both femurs. The femoral bone marrow cells were washed with PBS and filtered by 300 mesh nylon cell sieves to prepare a single-cell suspension. The suspension was centrifuged at 1650 rpm for 5 min, and the cell concentration was adjusted to 5×10^6 cells/mL by PBS resuspension. For each sample, 100 μL of the cell suspension was incubated with 400 μL of the PIPES-PI solution (10 mL of PIPES solution (concentration of 3.5 mg/mL)+0.5 mg PI+0.01 mL Triton X-100 (concentration of 0.1%)), gently blown and mixed, at 4° C. in the dark for 30 min and detected by a flow cytometry. […] The higher the value, the stronger the genotoxicity."}, "[2]": {"system": "ICH rats", "assay": "Ca2+ level and mitochondrial membrane potential in brain tissue, ICH rats", "type": "in vivo, rat", "details": "12-24 hours after operation, group M", "experimental": "(§1) The rats were decapitated to collect the brain 12 to 24 hours after modeling. The brain cortex around the hematoma was immediately taken to prepare a single cell suspension by enzymatic digestion (papain: 2 mg/mL; DNAase I: 0.05 mg/mL), with the cell concentration was adjusted to 5×10^6 cells/mL. 100 μL of cell suspension was incubated with 5 μM Fluo-3/AM dye solution or 10 μM Rhodamine 123 dye solution at 37° C. for 45 min. Then the cells were washed twice with PBS (phosphate buffer, pH=7.2-7.4), resuspended with 0.5 mL of PBS, and detected by a flow cytometry at the excitation wavelength of 506 nm and the emission wavelength of 526 nm. The mean fluorescence intensity of Fluo-3 and Rh123 in 10,000 cells was analyzed by FlowJo software."}, "[3]": {"system": "SAH rats", "assay": "Ca2+ level and mitochondrial membrane potential in brain tissue, SAH rats", "type": "in vivo, rat", "details": "12-24 hours after operation, group M", "experimental": "as §1"}, "[4]": {"system": "SAH rats", "assay": "Short-term neurological function of SAH rats (Garcia score, beam balance test, bleeding score)", "type": "in vivo, rat", "details": "SAH model; for Beam balance score / Garcia score: 24 hours after modeling", "experimental": "Experimental grouping: At 2 h after endovascular perforation or collagenase VII injection, Zea Longa score was used to evaluate the neurological function of rats. Successful model rats were randomly divided into groups for administration.\nAll groups were administrated through the tail vein injection except for group N administrated intraperitoneally.\nThe rats were fasted for 12 hours before operation, and were anesthetized with 4% isoflurane, and kept anesthetized with 2% isoflurane. The animals were fixed in the supine position with the body temperature maintained at about 37° C. A traditional skin incision of the neck was performed along the midline. The muscle and fascia were separated along the medial margin of the sternocleidomastoid muscle to expose the right side, then the common carotid artery (CCA), external carotid artery (ECA) and internal carotid artery (ICA) were bluntly separated with disposal lines placed at CCA proximal end, ICA and ECA for use. The CCA proximal end and the ECA were ligated, and the ICA was temporarily clamped with an arterial clip, and then a small hole was poked with a needle at about 4 mm from the bifurcation at the CCA. A nylon suture was introduced into the CCA from the hole and advanced through the ICA after releasing the arterial clip, and the suture was inserted intracranially. […] The suture moved forward for roughly 2 mm to perforate the artery followed by instant withdraw, and then the suture was completely removed and the ICA was ligated. Finally, the incision was cleaned with normal saline and sutured. The sham group conducted the same procedure as the model group except for the perforation. After awakening from anesthesia, the animals were raised normally.\nThe SAH severity was grading after rat's euthanasia, i.e., completing the evaluation of short-term neurological function. The score was determined by the amount of subarachnoid hemorrhage on the surface of basal cistern and brain tissue which was divided into six parts by the Willis ring composed of basilar artery, anterior cerebral artery, internal carotid artery, posterior cerebral artery and posterior communicating artery. Each part was graded from 0 to 3 points according to the amount of subarachnoid blood clots, i.e., 0 points: no subarachnoid blood; 1 point: a small amount of subarachnoid blood; 2 points: moderate amount of blood clots with recognizable arteries; 3 points: blood clots cover all arteries in the area. All 6 part scores were added up for a total of 18 points. According to the final score, SAH hemorrhage severity could be divided into mild subarachnoid hemorrhage (0 to 7 points), moderate subarachnoid hemorrhage (8 to 12 points), and severe subarachnoid hemorrhage (13 to 18 points). The moderate to severe SAH models were selected for statistical analysis (score≥8 points).\nAccording to Zea Longa's neurological function score, the rats were scored 2 hours after the operation when they were awake from anesthesia. Successful model rats with a score of 1 to 3 points were enrolled in the group: • 0 points: no neurological deficits with normal activity; • 1 point: inability to fully extend the contralateral forepaw; • 2 points: the animal appears to turn in circles when crawling; • 3 points: the animal tends to lean to the hemiplegic side; • 4 points: the animal cannot walk spontaneously or loses consciousness. 1.4 Assessment of Short-Term Neurological Function\nThe neurological function of rats was comprehensively evaluated with Garcia score and beam balance test 24 hours after modeling. The criteria of Garcia score are shown in Table 1, which evaluates the movement, sensation, climbing and limb symmetry of the rats with the score range of 3 to 18 points. The lower the score, the more severe the neurological injury. The criteria of the beam balance test are shown in Table 2, which evaluated the proprioception and body coordination of rats with the score range of 0 to 6 points. […]"}, "[5]": {"details": "ASA-H group, α-asarone emulsion injection 200 mg/kg/day tail vein"}, "[6]": {"details": "ASA-L group, α-asarone emulsion injection 100 mg/kg/day tail vein"}, "[7]": {"details": "ASA-M group, α-asarone emulsion injection 150 mg/kg/day tail vein"}, "[8]": {"details": "group H, α-asarone emulsion injection 30 mg/kg tail vein"}, "[9]": {"details": "group L, α-asarone emulsion injection 7.5 mg/kg tail vein"}, "[10]": {"details": "group M, α-asarone emulsion injection 15 mg/kg tail vein"}},
  "data": [
    {"smiles": "C/C=C/c1cc(OC)c(OC)cc1OC", "note": "[α-asarone, trans-2,4,5-trimethoxy-1-propenylbenzene]", "values": [
      {"measurement": "MNPCE", "setting": "[1]; [5]", "result": "0.55 ± 0.43"},
      {"measurement": "PCE", "setting": "[1]; [5]", "result": "41.39 ± 6.11"},
      {"measurement": "fMNPCE (‰)", "setting": "[1]; [5]", "result": "12.60 ± 8.53 ‰"},
      {"measurement": "MNPCE", "setting": "[1]; [6]", "result": "0.39 ± 0.11"},
      {"measurement": "PCE", "setting": "[1]; [6]", "result": "40.58 ± 9.17"},
      {"measurement": "fMNPCE (‰)", "setting": "[1]; [6]", "result": "10.10 ± 2.75 ‰"},
      {"measurement": "MNPCE", "setting": "[1]; [7]", "result": "0.47 ± 0.19"},
      {"measurement": "PCE", "setting": "[1]; [7]", "result": "38.37 ± 3.18"},
      {"measurement": "fMNPCE (‰)", "setting": "[1]; [7]", "result": "12.34 ± 5.52 ‰"},
      {"measurement": "micronucleus rate compared to the blank emulsion group", "setting": "[1]; different doses of α-asarone emulsion injection (100, 150, 200 mg/kg/day)", "result": "no significant difference"},
      {"measurement": "changes in the micronucleus rate of mouse bone marrow cells", "setting": "[1]; intravenous dose of up to 200 mg/kg α-asarone emulsion injection", "result": "no significant changes"},
      {"measurement": "calcium level in brain tissue", "setting": "[2]; Fluo-3 flow cytometry", "result": "significantly reduce"},
      {"measurement": "mitochondrial membrane potential in brain tissue", "setting": "[2]; Rhodamine 123 flow cytometry", "result": "stabilize"},
      {"measurement": "calcium level in brain tissue", "setting": "[3]; Fluo-3 flow cytometry", "result": "significantly reduce"},
      {"measurement": "mitochondrial membrane potential in brain tissue", "setting": "[3]; Rhodamine 123 flow cytometry", "result": "stabilize"},
      {"measurement": "Beam balance score", "setting": "[4]; [8]", "result": 3.22},
      {"measurement": "Garcia score", "setting": "[4]; [8]", "result": 11.79},
      {"measurement": "Beam balance score", "setting": "[4]; [9]", "result": 3.30},
      {"measurement": "Garcia score", "setting": "[4]; [9]", "result": 10.82},
      {"measurement": "Beam balance score", "setting": "[4]; [10]", "result": 2.70},
      {"measurement": "Garcia score", "setting": "[4]; [10]", "result": 12.29},
      {"measurement": "curative effect compared with nimodipine (group N) and vinpocetine (group V)", "setting": "[4]; group M, 15 mg/kg", "result": "better"}
    ]}
  ]
}
